We go through one molecule from patent US10849875B2, “Cancer specific lipid targeted peptidomimetics” (University of Houston System, priority 2015, dated 2020).

Entries after “also recorded” stand apart in the source; their conditions may differ. Positions of bridges follow the written chain, without caps; N, C: chain ends. Non-standard residues stand in square brackets, D forms with d. Residues, ends and D or L forms follow the SMILES beside them. Chains are numbered I, II in the order given. Gly(N-piperonyl) = O=C(O)CNCc1ccc2c(c1)OCO2; N(4-MeOBn)Gly = COc1ccc(CNCC(=O)O)cc1; Nrpe = C[C@@H](NCC(=O)O)c1ccccc1; Nlys = NCCCCNCC(=O)O

The subject of one assay is HBEC30KT cells. Nature of the assay: MTS cell viability assay. Type of assay: cell-based, human. The protocol: (§1) After confirming the binding and specificity of the PPS1 on HCC4017 lung cancer cells, whether this compound has any biological effects on HCC4017 lung cancer cells was assayed. The gold standard cell viability (MTS) assay was used. HCC4017 cells and HBEC30kt and HBEC3kt cells were grown in 96 well plates on day 1, then treated by serial dilution of PPS1 and control compound C462 on day 2, and the viable cell count was measured using MTS reagent on day 3. […] On one of the repetitive experiments of this assay, Cystinylated-PPS1 compound was included (FIG. 6A). This was the intermediate compound used to attach the FITC-malemide for binding assays described previously. […] The only difference between this Cystinylated-PPS1 and the original PPS1 compound was just a single cysteine amino acid at the C-terminal. […]
(§2) A homo-dimeric version of PPS1 was synthesized. […] The resulting dimeric version of the PPS1 compound, PPS1D1 (FIG. 6C), and the analogous dimeric versions of scrambled PC2, PC2D1 (FIG. 6E), and control compound C462, PC462D1 (FIG. 82), were then evaluated for activity. […] As described above, HCC4017 cells and HBEC30kt and HBEC3kt cells were grown in 96 well plates on day 1, treated serial dilutions of PPS1, PPS1D1, C462 and C462D1 on day 2, and viable cell count was measured using MTS reagent on day 3. […]
Background: Tetrazolium assays rely on reduction of a dye to a coloured formazan, in cell work by metabolically active cells.

The nature of assay [1]: In vitro cellular activity of PS targeted peptoid derivatives. In kind it is cell-based. An excerpt:
Peptoid compounds include but are not limited to PPS1D1 (FIG. 15), PPS1-DE2 (FIG. 16), PPS1-RD1 (FIG. 17), PPS1-2P3H (FIG. 18), PPS1-4P3H (FIG. 19), PPS1-Tri-1 (FIG. 20), PPS1-Tet-1 (FIG. 21), and PPS2D1 (FIG. 22). […] PPS1D1 has a validated in vivo animal tumor burden activity.

Another assay relates to HBEC3kt cells. Nature of the assay: MTS cell viability assay. As to conditions: serial dilutions. Type of assay: cell-based, human. As for the experimental part:
as §1, §2

As for `COc1ccc(CN(CC(=O)N(CCCCN)CC(=O)N[C@@H](CCCCN)C(=O)N[C@H](CCCCN)C(=O)N[C@@H](CCSC)C(=O)NCCCC[C@H](NC(=O)[C@H](CCSC)NC(=O)[C@@H](CCCCN)NC(=O)[C@H](CCCCN)NC(=O)CN(CCCCN)C(=O)CN(Cc2ccc(OC)cc2)C(=O)CN(C(=O)CN(Cc2ccc3c(c2)OCO3)C(=O)CN[C@H](C)c2ccccc2)[C@H](C)c2ccccc2)C(N)=O)C(=O)CN(C(=O)CN(Cc2ccc3c(c2)OCO3)C(=O)CN[C@H](C)c2ccccc2)[C@H](C)c2ccccc2)cc1` [PPS1D1] (I: H-[Nrpe][Gly(N-piperonyl)][Nrpe][N(4-MeOBn)Gly][Nlys]K[dK]MK-NH2 / II: H-[Nrpe][Gly(N-piperonyl)][Nrpe][N(4-MeOBn)Gly][Nlys]K[dK]M; amide I:9-II:C; N-terminus assumed), in the assay on HBEC30KT cells (1 and 20 μM), the “effect on normal HBEC30KT cells” value is listed as “no effect”. For the same molecule, the “activity on normal HBEC30KT cells” value with HBEC30KT cells (serial dilutions) is given as “did not have any activity; also recorded: no cytotoxicity”. In addition, the “in vitro cellular activity” value in assay [1] is “validated in vitro cellular activity”. Moreover, in the assay on HBEC3kt cells, the “activity on normal HBEC3kt cells” value is “did not have any activity”.
